The supplement of paper PMC10307832

These cell lines were tested with NC(=O)c1ccc(N(C(N)=O)c2c(F)cccc2F)nc1-c1ccc(F)cc1F [VX-702] (assay: relative viability (nuclei count vs DMSO), 5 days (fraction); higher = more cells survive). Details: 2 µM.
In short: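 Lung cancer cell lines were seeded into 1536-well plates, kept overnight at 37 °C and pinned with five library-drug doses (not always all listed) spaced by √10. After 5 days, nuclei were Hoechst-stained, imaged at 4× and counted with MetaXpress. Viability is treated-well nuclei over vehicle-well nuclei, taken as a median across plates. Plates needed control CV below 25% and at least one doubling.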

Cell Line | relative viability
EMC-BAC-2 | 0.842
NCI-H2170 | 1
NCI-H1703 | 1.21
UMC-11 | 1.12
NCI-H650 | 1.24
LCLC-103H | 1.13
NCI-H596 | 1.07
HCC-827 | 0.647
COR-L 105 | 0.861
NCI-H1299 | 1.12
NCI-H2126 | 0.954
A549 | 1.07
NCI-H647 | 1.14
LOU-NH91 | 0.783
HCC-78 | 1.07
HCC-44 | 1.05
NCI-H1651 | 1.06
NCI-H1755 | 0.998
HOP-62 | 1.05
PC-14 | 0.873
NCI-H1650 | 1.02
ChaGo-K-1 | 1.02
NCI-H1648 | 0.63
NCI-H2342 | 1.09
NCI-H1623 | 0.905

What follows are cell lines tested with CC(C)(C)c1nc(-c2cccc(NS(=O)(=O)c3c(F)cccc3F)c2F)c(-c2ccnc(N)n2)s1 [Dabrafenib] + CS(=O)(=O)N1CCN(Cc2cc3nc(-c4cccc5[nH]ncc45)nc(N4CCOCC4)c3s2)CC1 [Pictilisib] (partner 1 µM) (assay: relative viability (nuclei count vs DMSO), 5 days (fraction); higher = more cells survive). Details: first compound 0.003 µM.
In short: (§1)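 The day after seeding in 1536-well plates, lung cancer cell lines were treated by pin tool with a single drug, or with a fixed anchor-drug dose together with five library-drug doses (not always all listed) in √10 steps. After 5 days, a combined fix-and-stain solution (final 0.05% Triton X-100, 1% formaldehyde, 1 ug/ml Hoechst) was added. Nuclei counted on 4× images gave relative viability as treated counts over vehicle counts, reported as the median of duplicate plates.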

Cell Line | relative viability
CAL-12T | 0.319
NCI-H1944 | 0.36
NCI-H2085 | 0.381
IA-LM | 0.379
NCI-H2228 | 0.331
EMC-BAC-2 | 0.52
NCI-H2170 | 0.251
NCI-H1703 | 0.257
UMC-11 | 0.749
LCLC-103H | 0.556
NCI-H596 | 0.372
HCC-827 | 1.07
COR-L 105 | 0.297
NCI-H1299 | 0.74
NCI-H2126 | 0.46
A549 | 0.497
HCC-44 | 0.555
NCI-H1651 | 0.534
NCI-H1755 | 0.444
PC-14 | 0.761
NCI-H1650 | 0.401

Same assay, conditions: first compound 0.009487 µM

Cell Line | relative viability
ABC-1 | 0.86
CAL-12T | 0.392
NCI-H1944 | 0.343
NCI-H2085 | 0.481
IA-LM | 0.569
NCI-H2228 | 0.386
NCI-H441 | 0.54
EMC-BAC-2 | 0.434
NCI-H2170 | 0.394
NCI-H1703 | 0.255
UMC-11 | 0.819
NCI-H650 | 0.977
LCLC-103H | 0.657
NCI-H596 | 0.364
HCC-827 | 1.13
COR-L 105 | 0.435
NCI-H1299 | 0.756
NCI-H2126 | 0.514
A549 | 0.487
NCI-H647 | 0.347
LOU-NH91 | 0.549
HCC-78 | 0.235
HCC-44 | 0.67
NCI-H1651 | 0.58
NCI-H1755 | 0.414
HOP-62 | 0.843
PC-14 | 0.862
NCI-H1650 | 0.841
ChaGo-K-1 | 0.591

Same assay, conditions: first compound 0.03 µM

Cell Line | relative viability
ABC-1 | 0.823
CAL-12T | 0.395
NCI-H1944 | 0.284
NCI-H2085 | 0.328
IA-LM | 0.444
NCI-H2228 | 0.415
NCI-H441 | 0.406
EMC-BAC-2 | 0.389
NCI-H2170 | 0.293
NCI-H1703 | 0.225
UMC-11 | 0.621
NCI-H650 | 0.878
LCLC-103H | 0.426
NCI-H596 | 0.194
HCC-827 | 0.89
COR-L 105 | 0.353
NCI-H1299 | 0.797
NCI-H2126 | 0.529
A549 | 0.519
LOU-NH91 | 0.555
HCC-78 | 0.192
HCC-44 | 0.499
NCI-H1651 | 0.559
NCI-H1755 | 0.237
HOP-62 | 0.648
PC-14 | 0.655
NCI-H1650 | 0.404
ChaGo-K-1 | 0.749

Same assay, conditions: first compound 0.09487 µM

Cell Line | relative viability
ABC-1 | 0.778
CAL-12T | 0.57
NCI-H1944 | 0.438
NCI-H2085 | 0.452
IA-LM | 0.412
NCI-H2228 | 0.316
NCI-H441 | 0.374
EMC-BAC-2 | 0.585
NCI-H2170 | 0.311
NCI-H1703 | 0.249
UMC-11 | 0.832
NCI-H650 | 0.688
LCLC-103H | 0.721
NCI-H596 | 0.397
COR-L 105 | 0.454
NCI-H1299 | 0.464
NCI-H2126 | 0.543
A549 | 0.544
NCI-H647 | 0.531
LOU-NH91 | 0.548
HCC-78 | 0.276
HCC-44 | 0.704
NCI-H1651 | 0.554
NCI-H1755 | 0.418
HOP-62 | 0.581
PC-14 | 0.688
NCI-H1650 | 0.647
ChaGo-K-1 | 0.721

Same assay, conditions: first compound 0.3 µM

Cell Line | relative viability
ABC-1 | 0.822
CAL-12T | 0.535
NCI-H1944 | 0.368
NCI-H2085 | 0.462
IA-LM | 0.255
NCI-H2228 | 0.483
NCI-H441 | 0.401
EMC-BAC-2 | 0.623
NCI-H2170 | 0.323
NCI-H1703 | 0.226
UMC-11 | 0.888
NCI-H650 | 0.661
LCLC-103H | 0.71
NCI-H596 | 0.423
HCC-827 | 1.03
COR-L 105 | 0.474
NCI-H1299 | 0.441
NCI-H2126 | 0.595
A549 | 0.64
NCI-H647 | 0.388
LOU-NH91 | 0.566
HCC-78 | 0.219
HCC-44 | 0.699
NCI-H1651 | 0.596
NCI-H1755 | 0.342
HOP-62 | 0.727
PC-14 | 0.696
NCI-H1650 | 0.814
ChaGo-K-1 | 0.933

What follows are cell lines tested with NC(=O)c1ccc(N(C(N)=O)c2c(F)cccc2F)nc1-c1ccc(F)cc1F [VX-702] + CS(=O)(=O)CCNCc1ccc(-c2ccc3ncnc(Nc4ccc(OCc5cccc(F)c5)c(Cl)c4)c3c2)o1 [Lapatinib] (partner 2 µM) in the same assay as above. Details: first compound 0.02 µM.
In short: as §1

Cell Line | relative viability
ABC-1 | 0.972
CAL-12T | 0.61
NCI-H1944 | 0.903
NCI-H2085 | 0.81
IA-LM | 0.789
NCI-H2228 | 0.851
EMC-BAC-2 | 0.924
NCI-H2170 | 0.278
NCI-H1703 | 1.2
UMC-11 | 0.866
NCI-H650 | 0.876
NCI-H596 | 1.09
HCC-827 | 0.181
COR-L 105 | 0.332
NCI-H1299 | 1.02
NCI-H2126 | 0.752
A549 | 1.05
NCI-H647 | 1.15
LOU-NH91 | 0.789
HCC-78 | 0.871
HCC-44 | 1.03
NCI-H1651 | 1.04
NCI-H1755 | 1.08
HOP-62 | 1.04
PC-14 | 0.363
NCI-H1650 | 0.808

Same assay, conditions: first compound 0.2 µM

Cell Line | relative viability
ABC-1 | 0.98
CAL-12T | 0.603
NCI-H1944 | 0.774
NCI-H2085 | 0.739
IA-LM | 0.738
NCI-H2228 | 1.04
EMC-BAC-2 | 0.947
NCI-H2170 | 0.284
NCI-H1703 | 0.931
UMC-11 | 0.908
NCI-H596 | 1.01
HCC-827 | 0.191
COR-L 105 | 0.336
NCI-H1299 | 0.965
NCI-H2126 | 0.763
A549 | 0.922
NCI-H647 | 0.935
LOU-NH91 | 0.645
HCC-78 | 0.456
HCC-44 | 1.03
NCI-H1651 | 0.929
NCI-H1755 | 1.02
HOP-62 | 0.894
PC-14 | 0.245
NCI-H1650 | 0.469

Same assay, conditions: first compound 0.6325 µM

Cell Line | relative viability
CAL-12T | 0.611
NCI-H1944 | 0.878
NCI-H2085 | 0.767
IA-LM | 0.77
NCI-H2228 | 1.04
EMC-BAC-2 | 0.906
NCI-H2170 | 0.273
NCI-H1703 | 0.647
UMC-11 | 0.769
NCI-H650 | 0.43
NCI-H596 | 1.13
HCC-827 | 0.19
COR-L 105 | 0.338
NCI-H1299 | 1.03
NCI-H2126 | 0.74
A549 | 0.943
NCI-H647 | 1.24
LOU-NH91 | 0.639
HCC-78 | 0.603
HCC-44 | 0.982
NCI-H1651 | 0.847
NCI-H1755 | 1.09
HOP-62 | 1.08
PC-14 | 0.311
NCI-H1650 | 0.818

Same assay, conditions: first compound 2 µM

Cell Line | relative viability
ABC-1 | 1.18
CAL-12T | 0.664
NCI-H1944 | 0.789
NCI-H2085 | 0.808
IA-LM | 0.761
NCI-H2228 | 1.33
EMC-BAC-2 | 0.883
NCI-H2170 | 0.299
NCI-H1703 | 1.21
UMC-11 | 1.04
NCI-H650 | 1.16
NCI-H596 | 1.1
HCC-827 | 0.152
COR-L 105 | 0.326
NCI-H1299 | 1.06
NCI-H2126 | 0.824
A549 | 1.03
NCI-H647 | 1.25
LOU-NH91 | 0.675
HCC-78 | 0.98
HCC-44 | 1.05
NCI-H1651 | 0.963
NCI-H1755 | 1.09
HOP-62 | 0.975
PC-14 | 0.29
NCI-H1650 | 0.907
